Key:
[1] = test system: HeLa cervical and MCF-7 breast adenocarcinomas; experiment: In vitro growth inhibition (MTT); type: cell-based, human; settings: HeLa and MCF-7
Excerpt: This finding led to an exploration of the SAR analyses by synthesizing the first generation compounds 3 containing diverse substituents at different positions in the 2-aryl-2-(3-indolyl)acetohydroxamate skeleton and testing this series for in vitro growth inhibition using the MTT colorimetric assay against two cell lines, human HeLa cervical and MCF-7 breast adenocarcinomas (Table 1). It emerged from these experiments that the substitution on the benzene ring of the indole moiety (R^2≠H) was not tolerated (e.g., 3abfa and 3acfa), whereas the nitrogen could be derivatized (R^1≠H) with only a small activity drop (e.g., 3bafa vs 3aafa).
(§1) Antiproliferative properties of the synthesized compounds were evaluated by the MTT assay. All compounds were dissolved in DMSO at a concentration of either 100 mM or 50 mM prior to cell treatment. The cells were trypsinized and seeded at 4×10^3 cells per well into 96-well plates. The cells were grown for 24 h, treated with compounds at concentrations ranging from 0.001 to 100 μM and incubated for 48 h in 200 μL media. 20 μL of MTT reagent in serum free medium (5 mg/mL) was added to each well and incubated further for 2 h. Media was removed and the resulting formazan crystals were re-solubilized in 200 μL of DMSO. A490 was measured using a Molecular Devices Thermomax plate reader. The experiments were performed in quadruplicate and repeated at least twice for each compound per cell line. Cells treated with 0.1% DMSO were used as a negative control; 1 μM phenyl arsine oxide (PAO) was used as a positive control.

[2] = test system: GBM 031810 neurosphere cells; experiment: Antiproliferative effect on patient-derived GBM neurosphere culture; type: cell-based; settings: Homo sapiens, average IC50 ± SD from three determinations, read-out: GI50 in vitro, GBM 031810 (average IC50)
Excerpt: Given the ability of the hydroxamates to overcome drug resistance a few select compounds were further evaluated against glioma cells grown in neurosphere conditions, which are known to promote the growth of stem-like cells from human glioma tissue. Indeed, the neurospheres show the ability of self-renewal by regrowing in culture from individual cells, and can differentiate into multiple neural lineages and recapitulate human gliomas on both histological and genetic levels more faithfully than serum cultured glioma cell lines when injected into the brains of mice. Because, neurosphere cells are generally resistant to radiation and chemotherapy, the micromolar to submicromolar activity of the hydroxamates against the glioma neurosphere cell cultures is noteworthy (Table 4). […] It is worthy of note, that the unmethylated MGMT promoter leading to such temozolomide resistance is found in about half of all GBM patients, who respond poorly to temozolomide chemotherapy. To date, no alternative treatment exists for this group of patients.
Human cancer cell lines were obtained from the American Type Culture Collection (ATCC, Manassas, Va., USA), the European Collection of Cell Culture (ECACC, Salisbury, UK) and the Deutsche Sammlung von Mikroorganismen and Zellkulturen (DSMZ, Braunschweig, Germany). Human cervical adenocarcinoma HeLa cells were cultured in DMEM supplemented with 10% fetal bovine serum (FBS). Human mammary carcinoma MCF-7 cells were cultured in RPMI supplemented with 10% FBS. The U87 cells (ATCC HTB-14) were cultured in DMEM culture medium, while the A549 cells (DSMZ ACC107) were cultured in RPMI culture medium supplemented with 10% heat-inactivated FBS. The glioblastoma multiforme Hs683 (ATCC HTB-138) and the T98G (ATCC CRL-1690) cell lines were cultivated in DMEM supplemented with 10% FBS. The Human uterine sarcoma MES-SA and MES-SA/Dx5 cells were cultured in RPMI-1640 medium supplemented with 10% FBS with MES SA/Dx5 maintained in the presence of 500 nM Doxorubicin (Sigma). SKMEL-28 cells (ATCC HTB72) and U373 glioblastoma cells (ECACC 08061901) were cultured in RPMI culture medium supplemented with 10% heat-inactivated FBS. Cell culture media were supplemented with 4 mM glutamine (Lonza code BE17-605E), 100 μg/mL gentamicin (Lonza code 17-5182), and penicillin-streptomycin (200 units/ml and 200 μg/ml) (Lonza code 17-602E). Neurosphere culture GBM 031810 was established using known methods and maintained in Neurobasal medium (Invitrogen Carlsbad, Calif.) with B27 supplement (20 ul/ml; Invitrogen), Glutamax (10 ul/ml; Invitrogen), fibroblast growth factor-2 (20 ng/ml; Peprotech, Rocky Hill, N.J., USA), epidermal growth factor (20 ng/ml; Peprotech), heparin (32 IE/ml; Sigma Aldrich, St. Louis, Mo.), and penicillin-streptomycin (1×, Invitrogen). […]

[3] = test system: T98G glioblastoma cells; experiment: MTT antiproliferative assay, T98G; type: cell-based; settings: Homo sapiens, 48 h treatment, ± SD, read-out: GI50 in vitro, T98G
Description: As part of the ongoing efforts aimed at identification of compounds active against cancer cells displaying resistance to proapoptotic agents, the selected 2-aryl-2-(3-indolyl)-acetohydroxamates were evaluated for in vitro growth inhibition against a panel of additional cancer cell lines including those resistant to various proapoptotic stimuli, such as human T98G and U87 glioblastoma and human A549 non-small-cell-lung cancer (NSCLC), as well as an apoptosis-sensitive tumor model, such as human Hs683 anaplastic oligodendroglioma, used as a reference. The data reveal that for the most part these compounds retain the single-digit antiproliferatve GI50 values in this challenging cancer cell panel.
Human cancer cell lines were obtained from the American Type Culture Collection (ATCC, Manassas, Va., USA), the European Collection of Cell Culture (ECACC, Salisbury, UK) and the Deutsche Sammlung von Mikroorganismen and Zellkulturen (DSMZ, Braunschweig, Germany). Human cervical adenocarcinoma HeLa cells were cultured in DMEM supplemented with 10% fetal bovine serum (FBS). Human mammary carcinoma MCF-7 cells were cultured in RPMI supplemented with 10% FBS. The U87 cells (ATCC HTB-14) were cultured in DMEM culture medium, while the A549 cells (DSMZ ACC107) were cultured in RPMI culture medium supplemented with 10% heat-inactivated FBS. The glioblastoma multiforme Hs683 (ATCC HTB-138) and the T98G (ATCC CRL-1690) cell lines were cultivated in DMEM supplemented with 10% FBS. The Human uterine sarcoma MES-SA and MES-SA/Dx5 cells were cultured in RPMI-1640 medium supplemented with 10% FBS with MES SA/Dx5 maintained in the presence of 500 nM Doxorubicin (Sigma). SKMEL-28 cells (ATCC HTB72) and U373 glioblastoma cells (ECACC 08061901) were cultured in RPMI culture medium supplemented with 10% heat-inactivated FBS. Cell culture media were supplemented with 4 mM glutamine (Lonza code BE17-605E), 100 μg/mL gentamicin (Lonza code 17-5182), and penicillin-streptomycin (200 units/ml and 200 μg/ml) (Lonza code 17-602E). Neurosphere culture GBM 031810 was established using known methods and maintained in Neurobasal medium (Invitrogen Carlsbad, Calif.) with B27 supplement (20 ul/ml; Invitrogen), Glutamax (10 ul/ml; Invitrogen), fibroblast growth factor-2 (20 ng/ml; Peprotech, Rocky Hill, N.J., USA), epidermal growth factor (20 ng/ml; Peprotech), heparin (32 IE/ml; Sigma Aldrich, St. Louis, Mo.), and penicillin-streptomycin (1×, Invitrogen). Growth factors and heparin were renewed twice weekly. All cell lines were cultured in T25 flasks, maintained and grown at 37° C., 95% humidity, 5% CO2.
as §1

[4] = test system: SKMEL-28 melanoma cells; experiment: Quantitative videomicroscopy, SKMEL-28; type: cell-based, human; settings: 25 μM
Description: To obtain insight into the effectiveness of 2-aryl-2-(3-indolyl)acetohydroxamates against apoptosis-resistant cancers, computer-assisted phase-contrast microscopy (quantitative videomicroscopy) was employed to observe the phenotypic morphological changes in cancer cells as they are treated with these compounds. […] Based on the phase contrast pictures obtained by means of quantitative videomicroscopy, a global growth ratio (GGR) was calculated, which corresponds to the ratio of the mean number of cells present in a given image captured in the experiment (in this case after 24, 48 and 72 h) to the number of cells present in the first image (at 0 h). The ratio obtained in the 3aafa-treated experiment was then divided by the ratio obtained in the control. […] Thus, the GGR calculations are consistent with the MTT colorimetric data and indicate that it is the cytostatic properties associated with the hydroxamates that are responsible for their antiproliferative effects against apoptosis-resistant cancer cells, at least at relevant concentrations (slightly above the GI50 values).
Human cancer cell lines were obtained from the American Type Culture Collection (ATCC, Manassas, Va., USA), the European Collection of Cell Culture (ECACC, Salisbury, UK) and the Deutsche Sammlung von Mikroorganismen and Zellkulturen (DSMZ, Braunschweig, Germany). […]

O=C(NO)C(c1ccccc1)c1c(-c2ccc3ccccc3c2)[nH]c2ccccc12 (centres unmarked) [Compound 3aafa]
antiproliferative potency (GI50) [1]: single-digit micromolar | IC50 [2]: 0.8 ± 0.6 µM | GI50 [3]: 36.4 ± 1.9 µM | phenotypic effect, SKMEL-28 ([4]; slightly exceeding GI50, FIG. 4): inhibits cancer cell proliferation without inducing cell death | global growth ratio (GGR), SKMEL-28 ([4]; 72 h observation, treated/control): ca. 0.3

— patent publication US9206124B2, “Treatment of drug-resistant cancer with 2-aryl-2-(3-indolyl) acetohydroxamates” (New Mexico Technical Research Foundation, priority 2013, dated 2015)
